# Assays:
# [1] = system: Trichophyton mentagroph. ATCC 4807; assay: in vitro antimicrobial activity, agar dilution test (minimum inhibitory concentrations); assay type: cell-based, Trichophyton mentagrophytes
# Protocol: (§1) The in vitro antimicrobial activity against microorganisms was determined in the agar dilution test (P. Klein, loc. cit.).
# [2] = system: Candida albicans ATCC 14052; assay: as above; assay type: cell-based
# Protocol: as §1
# [3] = system: Epidermophyton floccosum ATCC 10227; assay: as above; assay type: cell-based
# Protocol: as §1
# [4] = system: Mikrosporon ferrugineum CBS 317.31; assay: as above; assay type: cell-based
# Protocol: as §1
# [5] = system: Trichophyton mentagrophytes; assay: guinea pig trichophytosis model, external application; assay type: in vivo; conditions: externally once daily
# Protocol: Furthermore, the novel compounds were tested in the guinea pig trichophyt is model (Trichophyton mentagrophytes; cf. Heffter-Heubner: Handbuch der experimentellen Pharmakologie, Volume XVI/11A, Springer Verlag, Berlin, Heidelberg, New York, 1967), in which the compounds were applied externally in the form of 0.2, 0.5 and 1% strength suspensions. Application was effected once daily for 4 and 7 days respectively. After the 4th and 7th day of treatment, and 7 days after the last treatment, hairs or scales were pulled off at from 3 to 5 points in the infected area in each animal, and were incubated in Sabourand dextrose bouillon.
# Evaluation was carried out by monitoring fungal growth after incubation for 8 days.
# [6] = 0.2% suspension, 7 days after treatment
# [7] = 1.0% suspension, 7 days after treatment
SMILES,Minimum inhibitory concentrations [1],Minimum inhibitory concentrations [2],Minimum inhibitory concentrations [3],Minimum inhibitory concentrations [4],"fraction of animals in which infection was observed ([5]; 0.2% suspension, 4 days)","fraction of animals in which infection was observed ([5]; 0.2% suspension, 7 days)","fraction of animals in which infection was observed [5, 6]","fraction of animals in which infection was observed ([5]; 1.0% suspension, 4 days)","fraction of animals in which infection was observed ([5]; 1.0% suspension, 7 days)","fraction of animals in which infection was observed [5, 7]","fraction of animals in which infection was observed ([5]; 0.5% suspension, 4 days)","fraction of animals in which infection was observed ([5]; 0.5% suspension, 7 days)","fraction of animals in which infection was observed ([5]; 0.5% suspension, 7 days after treatment)"
"CCCN(CC)CC(C)C[C@H]1CC[C@H](C(C)(C)C)CC1 (stereo partly drawn) [Example 2, trans-3-(4'-tert.-Butylcyclohex-1'-yl)-2-methyl-1-(N-ethyl-N-n-propylamino)-propane]",0.25,1,0.25,< 0.125,–,–,–,–,–,–,–,–,–
"Clc1ccccc1C(c1ccccc1)(c1ccccc1)n1ccnc1 [Clotrimazole, reference compound]",–,–,–,–,3/5,3/5,3/5,2/5,0/5,3/5,–,–,–
"Cc1cccc(N(C)C(=S)Oc2ccc3ccccc3c2)c1 [Tolnaftate, reference compound]",–,–,–,–,–,–,–,0/9,0/9,2/9,–,–,–
"CCCN(CCC)CC(C)C[C@H]1CC[C@H](C(C)(C)C)CC1 (stereo partly drawn) [Example 1, trans-3-(4'-tert.-Butylcyclohex-1'-yl)-2-methyl-1-(N-di-n-propylamino)-propane]",< 0.125,< 0.125,< 0.125,< 0.125,3/5,2/5,1/5,1/5,0/5,0/5,0/5,0/5,0/5
